Measured values reported in ChEMBL document CHEMBL1127255, “Synthesis of the benzofuran analogue of ILV, a new protein kinase C (PKC) activator” (Bioorg Med Chem Lett, 1994).
pKi: −log10 of the molar value.

Target: Protein kinase C alpha type (Homo sapiens, UniProt P17252)
Assay: Displacement of [3H]PDBu from PKC alpha expressed in Sf9 cells

Row | SMILES | pKi
1 | CC(C)[C@H]1C(=O)N[C@H](CO)Cc2coc3cccc(c23)N1C | 7.76
2 | CC(C)[C@H]1C(=O)N[C@H](CO)Cc2c[nH]c3cccc(c23)N1C [INDOLACTUM] | 7.96
